Assay results as given in US20250248393A1, “METHOD OF RELEASING A SEMIOCHEMICAL IN THE ENVIRONEMENT BY PASSIVE DIFFUSION, SYSTEM AND MEANS, ESPECIALLY STICKS, TO THIS END, AND USES THEREOF” (SIGNS, priority 2024, published 2025).

Columns and labels:
Type in all cases: physicochemical
[1] = F3P PCDS direct diffusion (SPME GC/MS); details: 40 mL, 6 capillaries
Experimental: For this study, three diffusers each containing 40 mL of product and 6 capillaries were prepared and diffused. Every Monday, Wednesday and Friday, pheromone diffusion in the air was monitored by GC/MS and SPME (Solid Phase Micro Extraction) until no liquid remained.
Experimentally, the device studied was placed in a closed space (in our case an upturned aquarium) containing the SPME fiber. The set-up si the same as the set-up shown in Section D/above and in FIG. 24. The SPME fiber was left for 2 hours to give the molecules time to absorb onto the fiber, then the fiber was injected into the GC/MS instrument for analysis. Pheromone diffusion over time was then studied.
Same elements as in Section E/V. C. are reproduced in this section.

[2] = Ratios of molecules diffused through the sticks over time
Experimental: Furthermore, as small molecules diffuse more, it happens that they lose intensity over the course of the study, so the ratios are different 24 hours after immersing the sticks in the liquid and 21 days later. Here are the ratios for each pheromone studied at the start of the study and at the end.

[3] = Indirect assay of rod diffuser solution (GC/FID); details: stick diffuser solution, despecified pheromone
Experimental: Solution integrity was checked at each analysis time. Before each indirect assay, the vial was weighed to visualize mass loss over time. Each vial contained six sticks. • Specifications: the solution must lose mass over time. • Result: Compliant—See FIG. 9 This is the same analytical method as for the diffuser block study, only the sample preparation differs. 1.25 g of solution were weighed into a 25 mL volumetric flask and the volume made up to the mark with acetone. The resulting solution is transferred to a 1.5 mL GC vial for analysis. This is exactly the same calibration range as for the diffuser block study.

[4] = Pheromone migrated to the stick tips (GC/FID); details: on stick tips, despecified pheromone
Experimental: In the course of this study, we also measured the amount of pheromone migrating on the sticks, to check that the pheromone had migrated to the top of the sticks, helping it to diffuse into the air. To do this, the test is the same as for the diffuser blocks: 2.5 g of stick tips are cut off and placed in a 50 mL flask, which is then placed in an ultrasonic bath for one hour. The resulting solution is filtered (to avoid injecting particles into the instrument) and placed in a chromatographic vial for analysis.

[5] = F3 sticks device, direct diffusion, 40 mL and four sticks (SPME GC/MS); details: four sticks
Experimental: Three devices containing 40 mL of F3 feline facial pheromone product and four rattan sticks were prepared and left on diffusion. Every Monday, Wednesday and Friday, the diffusion of the pheromone in air was checked by analysis by gas chromatography coupled with mass spectrometer (GC/MS) and SPME (solid phase microextraction) until there is no liquid left (about 22 days).
To that purpose, the studied device was taken and placed into a closed space (in our case an aquarium turned over) containing the SPME fiber as shown on FIG. 24.
The SPME fiber was left for two hours to give the time for the molecules to adsorb on the fiber, then the fiber was injected into the GC/MS instrument for analysis.
Analysis were carried out using gas chromatography with mass spectrometer. The instrument was a GCMS QP2010SE® from Shimadzu with an AOC6000® Autosampler. The separation was performed on a ZB-5 MS® column (30 m×0.25 mm×0.25 μm, stationary phase: 95% Dimethylpolysiloxane, 5% Phenyl-Arylene) from Phenomenex. The GC oven temperature was initially held at 100° C. for 1 minute then increased at a pace of 10° C./min to 120° C. and left at this temperature for 3 minutes. Finally, the oven temperature was increased at a pace of 10° C./min to 240° C. and left at this temperature for 10 minutes. The carrier gas was helium at 1 mL/min. Analysis were performed in split mode using a split/splitless injector (Temperature: 250° C., split: 1:20). The SPME fiber was directly injected into the injector and left for 30 minutes. Separated molecules were detected using a mass spectrometer which was operated in electron impact ionization (EI) in both full scan (FS) and single ion monitoring (SIM) modes, so called FASST (Fast Automated SCAN/SIM type) mode. The interface temperature was set at 300° C. and electron impact source temperature at 250° C. The analyser was a quadrupole.
For the measurement of the relative quantity of active ingredient spreading in air, the area of the chromatographic peak corresponding to the compound was measured using Shimadzu GCMS-Solution software.

[6] = DAP, 24 h after immersion of sticks
[7] = DAP, 21 days after immersion of sticks (empty tank)
[8] = Despecified pheromone (Core), 5 days after immersion of the sticks
[9] = Despecified pheromone (Core), 21 days after immersion of sticks (empty tank)
[10] = F3, 24 h after immersion of sticks
[11] = F3, 21 days after immersion of sticks (empty tank)
[12] = F3P, 24 h after immersion of the sticks
[13] = F3P, 21 days after immersion of sticks (empty tank)

direct diffusion over time [1] | ratio of molecules diffused through the sticks [2, 6] | ratio of molecules diffused through the sticks [2, 7] | ratio of molecules diffused through the sticks [2, 8] | ratio of molecules diffused through the sticks [2, 9] | ratio of molecules diffused through the sticks [2, 10] | ratio of molecules diffused through the sticks [2, 11] | ratio of molecules diffused through the sticks [2, 12] | ratio of molecules diffused through the sticks [2, 13] | % of the active ingredient in the pheromone ([3]; day 0) [%] | % of the active ingredient in the pheromone ([3]; day 7) [%] | % of the active ingredient in the pheromone ([3]; day 14) [%] | % of the active ingredient in the pheromone ([3]; day 21) [%] | % of the active ingredient in the pheromone ([4]; day 7) [%] | % of the active ingredient in the pheromone ([4]; day 14) [%] | % of the active ingredient in the pheromone ([4]; day 21) [%] | SMILES | direct diffusion over time [5]
increased over time | 2 % (w/w) | 3.5 % (w/w) | 3 % (w/w) | 4 % (w/w) | 2 % (w/w) | 4 % (w/w) | 0.6 % (w/w) | 2 % (w/w) | 30.8 | 30.8 | 30.7 | 30.8 | 31.3 | 31.5 | 32.6 | CCCCCCCC/C=C\CCCCCCCC(=O)OC [methyl oleate, methyl (Z)-octadec-9-enoate] | slight increase of the diffusion over time
increased over time | 9.5 % (w/w) | 12 % (w/w) | 19 % (w/w) | 22 % (w/w) | 3 % (w/w) | 5 % (w/w) | 1 % (w/w) | 3.4 % (w/w) | 27.3 | 27.3 | 27.2 | 26.2 | 29.8 | 30.2 | 32.5 | CCCCCCCCCCCCCCCC(=O)OC [methyl palmitate, methyl hexadecanoate] | slight increase of the diffusion over time
